Structures can show the parent of a compound that is named as a salt.
Assay: Saturation solubility of moxifloxacin hydrochloride in water
Assay type: physicochemical
Conditions: aqueous solution, room temperature
Protocol: Accordingly, freshly prepared solutions of moxifloxacin with sugars and/or sugar alcohols have, even if they have relatively high iron contents, a sufficient stability against the formation of particles for the period of use of, preferably, up to 12 hours after preparation. Thus, the problem to be solved by the invention can also be overcome by iron-containing solutions for infusion which are used immediately after preparation. Here, it is expedient to use a process in which a pre-formed concentrated aqueous solution of moxifloxacin or a salt thereof and a pre-formed solution of the sugar and/or the sugar alcohols are mixed with one another. […] The concentrated aqueous solution of moxifloxacin id hydrochloride preferably contains from 0.4% (w/v) to 2.4% (w/v) of moxifloxacin (calculated as betaine). […] The active compound concentrate preferably comprises from 1.0 to 2.0% (w/v) of moxifloxacin (calculated as betaine), particularly preferably 2.0% (w/v) of moxifloxacin (calculated as betaine). […]

saturation solubility: about 2.4 % (w/v)
SMILES: COc1c(N2C[C@@H]3CCCN[C@@H]3C2)c(F)cc2c(=O)c(C(=O)O)cn(C3CC3)c12 [moxifloxacin hydrochloride, 1-cyclopropyl-7-([S,S]-2,8-diazabicyclo[4.3.0]non-8-yl)-6-fluoro-1,4-dihydro-8-methoxy-4-oxo-3-quinolonecarboxylic acid]

— patent publication US6916484B1, “Aqueous pharmaceutical composition containing moxifloxacin or salts thereof” (Bayer Aktiengesellschaft, priority 1999, dated 2005)
